From ChEMBL document CHEMBL4665688, “Discovery of AB680: A Potent and Selective Inhibitor of CD73” (J Med Chem, 2020)

Columns and labels:
[1] = biological target: T1, 5'-nucleotidase (Homo sapiens, UniProt P21589); assay: Inhibition of human CD73 expressed in CHO cells using AMP as substrate preincubated for 60 mins followed by substrate addition and measured after 60 mins by PiColorLock gold reagent based colorimetric assay; assay type: cell-based
[2] = Clearance in Sprague-Dawley rat at 0.5 mg/kg, iv; assay type: ADME, organism-based; conditions: in vivo
[3] = biological target: T1, 5'-nucleotidase; assay: Inhibition of human CD73 using AMP as substrate by Malachite green phosphate reagent-based assay

T1 sequence (P21589 whole entry): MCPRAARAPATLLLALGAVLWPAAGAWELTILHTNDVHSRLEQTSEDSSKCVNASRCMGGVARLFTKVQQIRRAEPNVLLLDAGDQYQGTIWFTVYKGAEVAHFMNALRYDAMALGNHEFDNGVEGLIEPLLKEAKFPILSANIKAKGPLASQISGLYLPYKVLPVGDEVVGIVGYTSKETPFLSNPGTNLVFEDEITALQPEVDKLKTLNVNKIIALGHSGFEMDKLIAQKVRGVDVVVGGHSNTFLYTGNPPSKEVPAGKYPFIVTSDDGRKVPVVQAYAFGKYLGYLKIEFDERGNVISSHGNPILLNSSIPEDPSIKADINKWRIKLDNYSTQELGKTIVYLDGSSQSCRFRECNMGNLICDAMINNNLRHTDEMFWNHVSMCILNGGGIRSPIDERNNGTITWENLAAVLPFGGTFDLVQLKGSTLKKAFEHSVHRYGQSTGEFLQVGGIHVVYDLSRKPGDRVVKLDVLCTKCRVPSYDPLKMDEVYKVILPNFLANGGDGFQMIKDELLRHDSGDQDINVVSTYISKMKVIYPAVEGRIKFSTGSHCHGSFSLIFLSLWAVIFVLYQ

IC50 [1] [nM] | clearance [2] [mL/min/kg] | Structure (SMILES) | IC50 [3] [nM]
3.4 |  | Nc1nc(Cl)nc2c1ncn2[C@@H]1O[C@H](COP(=O)(O)CP(=O)(O)O)[C@@H](O)[C@@H]1F | 
5 |  | Nc1nc(Cl)nc2c1ncn2[C@@H]1O[C@H](COP(=O)(O)CP(=O)(O)O)[C@@H](O)[C@H]1O | 
0.031 | 0.833 | C[C@H](Nc1nc(Cl)nc2c1cnn2[C@@H]1O[C@H](COP(=O)(O)CP(=O)(O)O)[C@@H](O)[C@H]1O)c1cccc(F)c1 | 
0.9 |  | O=P(O)(O)CP(=O)(O)OC[C@H]1O[C@@H](n2cnc3c(N4CCCC4)nc(Cl)nc32)[C@@H](F)[C@@H]1O | 
5.4 | 0.483 | C[C@H](Nc1nc(Cl)nc2c1cnn2[C@@H]1O[C@H](COP(=O)(O)CP(=O)(O)O)[C@@H](O)[C@@H]1F)c1ccccc1 | 
12 |  | CCc1nc(NCc2ccccc2)c2ncn([C@@H]3O[C@H](COP(=O)(O)CP(=O)(O)O)[C@@H](O)[C@H]3O)c2n1 | 
3.3 |  | O=P(O)(O)CP(=O)(O)OC[C@H]1O[C@@H](n2cnc3c(NC4CCCC4)nc(C(O)c4ccccc4)nc32)[C@@H](F)[C@@H]1O (stereo partly specified) | 
0.2 |  | O=P(O)(O)CP(=O)(O)OC[C@H]1O[C@@H](n2cnc3c(NC4CCCC4)nc(Cl)nc32)[C@H](O)[C@@H]1O | 
0.058 | 2.83 | C[C@@H](Nc1nc(Cl)nc2c1cnn2[C@@H]1O[C@H](COP(=O)(O)CP(=O)(O)O)[C@@H](O)[C@H]1O)c1ccccc1 | 
0.031 | 0.5 | C[C@H](Nc1nc(Cl)nc2c1ccn2[C@@H]1O[C@H](COP(=O)(O)CP(=O)(O)O)[C@@H](O)[C@H]1O)c1ccc(F)cc1 | 
0.7 |  | CC(C)Nc1nc(Cl)nc2c1ncn2[C@@H]1O[C@H](COP(=O)(O)CP(=O)(O)O)[C@@H](O)[C@H]1O | 
3.6 |  | O=P(O)(O)CP(=O)(O)OC[C@H]1O[C@@H](n2cnc3c(NCc4ccncc4)nc(Cl)nc32)[C@@H](F)[C@@H]1O | 
1.6 | 4.67 | C[C@@H](Nc1nc(Cl)nc2c1ncn2[C@@H]1O[C@H](COP(=O)(O)CP(=O)(O)O)[C@@H](O)[C@@H]1F)c1ccccc1 | 
4 |  | Cc1nc(NCc2ccccc2)c2ncn([C@@H]3O[C@H](COP(=O)(O)CP(=O)(O)O)[C@@H](O)[C@@H]3F)c2n1 | 
0.6 |  | COCc1nc(NC2CCCC2)c2ncn([C@@H]3O[C@H](COP(=O)(O)CP(=O)(O)O)[C@@H](O)[C@@H]3F)c2n1 | 
0.4 | 2.5 | O=P(O)(O)CP(=O)(O)OC[C@H]1O[C@@H](n2cnc3c(NC4CCCC4)nc(Cl)nc32)[C@@H](F)[C@@H]1O | 
0.027 | 10.5 | O=P(O)(O)CP(=O)(O)OC[C@H]1O[C@@H](n2ncc3c(NC4CCCC4)nc(Cl)nc32)[C@H](O)[C@@H]1O | 
18 |  | O=P(O)(O)CP(=O)(O)OC[C@H]1O[C@@H](n2cnc3c(NCc4ccccc4)nc(C(F)(F)F)nc32)[C@@H](F)[C@@H]1O | 
0.7 |  | C[C@@H](Nc1nc(Cl)nc2c1ncn2[C@@H]1O[C@H](COP(=O)(O)CP(=O)(O)O)[C@@H](O)[C@H]1O)c1ccccc1 | 

IC50 [1] [nM] | clearance [2] [mL/min/kg] | Structure (SMILES) | IC50 [3] [nM]
3.6 |  | CC(C)Nc1nc(Cl)nc2c1ncn2[C@@H]1O[C@H](COP(=O)(O)CP(=O)(O)O)[C@@H](O)[C@@H]1F | 
5 |  | CNc1nc(NCc2ccccc2)c2ncn([C@@H]3O[C@H](COP(=O)(O)CP(=O)(O)O)[C@@H](O)[C@H]3O)c2n1 | 
5.9 |  | O=P(O)(O)CP(=O)(O)OC[C@H]1O[C@@H](n2ncc3c(NCc4ccccc4)nc(Cl)nc32)[C@@H](F)[C@@H]1O | 
0.12 |  | CN(c1nc(Cl)nc2c1ncn2[C@@H]1O[C@H](COP(=O)(O)CP(=O)(O)O)[C@@H](O)[C@H]1O)C1CCCC1 | 
1.4 |  | O=P(O)(O)CP(=O)(O)OC[C@H]1O[C@@H](n2cnc3c(NC4CCCC4)nc(C(O)C4CC4)nc32)[C@@H](F)[C@@H]1O (stereo partly specified) | 
1.1 |  | O=P(O)(O)CP(=O)(O)OC[C@H]1O[C@@H](n2cnc3c(N4Cc5ccccc5C4)nc(Cl)nc32)[C@@H](F)[C@@H]1O | 
5 |  | CCNc1nc(Cl)nc2c1ncn2[C@@H]1O[C@H](COP(=O)(O)CP(=O)(O)O)[C@@H](O)[C@@H]1F | 
0.15 |  | CN(c1nc(Cl)nc2c1ncn2[C@@H]1O[C@H](COP(=O)(O)CP(=O)(O)O)[C@@H](O)[C@@H]1F)C1CCCC1 | 
1.3 |  | O=P(O)(O)CP(=O)(O)OC[C@H]1O[C@@H](n2cnc3c(NCc4cccc(Cl)c4)nc(Cl)nc32)[C@@H](F)[C@@H]1O | 
2 |  | C#Cc1nc(NCc2ccccc2)c2ncn([C@@H]3O[C@H](COP(=O)(O)CP(=O)(O)O)[C@@H](O)[C@@H]3F)c2n1 | 
18 |  | O=P(O)(O)CP(=O)(O)OC[C@H]1O[C@@H](n2cnc3c(NCc4ccccc4)nc(CCc4ccccc4)nc32)[C@@H](F)[C@@H]1O | 
0.8 |  | O=P(O)(O)CP(=O)(O)OC[C@H]1O[C@@H](n2cnc3c(N[C@H]4CCOC4)nc(Cl)nc32)[C@@H](F)[C@@H]1O | 
12 |  | CNc1nc(Cl)nc2c1ncn2[C@@H]1O[C@H](COP(=O)(O)CP(=O)(O)O)[C@@H](O)[C@@H]1F | 
48 |  | O=P(O)(O)CP(=O)(O)OC[C@H]1O[C@@H](n2cnc3c(NCc4ccccc4)nc(N4CCCC4)nc32)[C@H](O)[C@@H]1O | 
1.5 |  | O=P(O)(O)CP(=O)(O)OC[C@H]1O[C@@H](n2cnc3c(NCc4ccccc4)nc(Cc4ccccc4)nc32)[C@@H](F)[C@@H]1O | 
0.15 | 4.5 | O=P(O)(O)CP(=O)(O)OC[C@H]1O[C@@H](n2ncc3c(NC4CCCC4)nc(Cl)nc32)[C@@H](F)[C@@H]1O | 
0.028 | 0.833 | C[C@H](Nc1nc(Cl)nc2c1ccn2[C@@H]1O[C@H](COP(=O)(O)CP(=O)(O)O)[C@@H](O)[C@H]1O)c1ccccc1F | 
1.7 |  | O=P(O)(O)CP(=O)(O)OC[C@H]1O[C@@H](n2cnc3c(NC4CC4)nc(Cl)nc32)[C@H](O)[C@@H]1O | 
202 |  | O=P(O)(O)CP(=O)(O)OC[C@H]1O[C@@H](n2cnc3c(NC4CCCC4)nc(C(O)C4CCOCC4)nc32)[C@@H](F)[C@@H]1O (stereo partly specified) | 

IC50 [1] [nM] | clearance [2] [mL/min/kg] | Structure (SMILES) | IC50 [3] [nM]
0.095 |  | C[C@H](Nc1nc(Cl)nc2c1cnn2[C@@H]1O[C@H](COP(=O)(O)CP(=O)(O)O)[C@@H](O)[C@H]1O)c1ccc(F)cc1 | 
4.1 | 0.35 | C[C@H](Nc1nc(Cl)nc2c1ncn2[C@@H]1O[C@H](COP(=O)(O)CP(=O)(O)O)[C@@H](O)[C@@H]1F)c1ccccc1 | 
0.7 | 1 | O=P(O)(O)CP(=O)(O)OC[C@H]1O[C@@H](n2cnc3c(NCc4ccccc4)nc(Cl)nc32)[C@@H](F)[C@@H]1O | 
0.3 |  | C[C@H](Nc1nc(Cl)nc2c1ncn2[C@@H]1O[C@H](COP(=O)(O)CP(=O)(O)O)[C@@H](O)[C@H]1O)c1ccccc1 | 
2.6 |  | O=P(O)(O)CP(=O)(O)OC[C@H]1O[C@@H](n2cnc3c(NC4CC4)nc(Cl)nc32)[C@@H](F)[C@@H]1O | 
0.07 | 0.667 | C[C@H](Nc1nc(Cl)nc2c1cnn2[C@@H]1O[C@H](COP(=O)(O)CP(=O)(O)O)[C@@H](O)[C@H]1O)c1ccccc1F | 
4.2 |  | O=P(O)(O)CP(=O)(O)OC[C@H]1O[C@@H](n2cnc3c(NCc4ccccc4Cl)nc(Cl)nc32)[C@@H](F)[C@@H]1O | 
2.1 | 9.33 | C[C@@H](Nc1nc(Cl)nc2c1cnn2[C@@H]1O[C@H](COP(=O)(O)CP(=O)(O)O)[C@@H](O)[C@@H]1F)c1ccccc1 | 
0.3 |  | O=P(O)(O)CP(=O)(O)OC[C@H]1O[C@@H](n2cnc3c(NCc4ccccc4)nc(Cl)nc32)[C@H](O)[C@@H]1O | 
0.052 | 3.33 | O=P(O)(O)CP(=O)(O)OC[C@H]1O[C@@H](n2ncc3c(NCc4ccccc4)nc(Cl)nc32)[C@H](O)[C@@H]1O | 
2.2 |  | COc1nc(NCc2ccccc2)c2ncn([C@@H]3O[C@H](COP(=O)(O)CP(=O)(O)O)[C@@H](O)[C@H]3O)c2n1 | 
1.3 |  | O=P(O)(O)CP(=O)(O)OC[C@H]1O[C@@H](n2cnc3c(OCc4ccccc4)nc(Cl)nc32)[C@@H](F)[C@@H]1O | 
1.3 |  | Cc1nc(NCc2ccccc2)c2ncn([C@@H]3O[C@H](COP(=O)(O)CP(=O)(O)O)[C@@H](O)[C@H]3O)c2n1 | 
2.4 |  | O=P(O)(O)CP(=O)(O)OC[C@H]1O[C@@H](n2cnc3c(NCc4ccc(Cl)cc4)nc(Cl)nc32)[C@@H](F)[C@@H]1O | 
0.032 | 0.667 | C[C@H](Nc1nc(Cl)nc2c1ccn2[C@@H]1O[C@H](COP(=O)(O)CP(=O)(O)O)[C@@H](O)[C@H]1O)c1cccc(F)c1 | 
10 |  | O=P(O)(O)CP(=O)(O)OC[C@H]1O[C@@H](n2cnc3c(NCc4ccccc4)nc(-c4ccccc4)nc32)[C@@H](F)[C@@H]1O | 
18 |  | Nc1ncnc2c1ncn2[C@@H]1O[C@H](COP(=O)(O)CP(=O)(O)O)[C@@H](O)[C@H]1F | 
 |  | Nc1ncnc2c1ncn2[C@@H]1O[C@H](COP(=O)(O)CP(=O)(O)O)[C@@H](O)[C@H]1O [PHOSPHOMETHYLPHOSPHONIC ACID ADENOSYL ESTER] | 187
